From patent US10246429B2, “Vinyl fluoride cyclopropyl fused thiazin-2-amine compounds as beta-secretase inhibitors and methods of use” (AMGEN INC., priority 2015, dated 2019)

Tests used:
Cathepsin D (CatD) = Cathepsin D (CatD) (Homo sapiens (Human), UniProt P07339); assay: CatD assay; format: biochemical; conditions: read-out: IC50 IP (μM) CatD
BACE1 [1] = molecular target: T1, BACE1 (Homo sapiens (Human), UniProt P56817); assay: In vitro enzymatic BACE1 FRET assay; format: biochemical; conditions: read-out: IC50 IP (μM) BACE1 Enzyme
Target sequence in this assay (P56817 46-501): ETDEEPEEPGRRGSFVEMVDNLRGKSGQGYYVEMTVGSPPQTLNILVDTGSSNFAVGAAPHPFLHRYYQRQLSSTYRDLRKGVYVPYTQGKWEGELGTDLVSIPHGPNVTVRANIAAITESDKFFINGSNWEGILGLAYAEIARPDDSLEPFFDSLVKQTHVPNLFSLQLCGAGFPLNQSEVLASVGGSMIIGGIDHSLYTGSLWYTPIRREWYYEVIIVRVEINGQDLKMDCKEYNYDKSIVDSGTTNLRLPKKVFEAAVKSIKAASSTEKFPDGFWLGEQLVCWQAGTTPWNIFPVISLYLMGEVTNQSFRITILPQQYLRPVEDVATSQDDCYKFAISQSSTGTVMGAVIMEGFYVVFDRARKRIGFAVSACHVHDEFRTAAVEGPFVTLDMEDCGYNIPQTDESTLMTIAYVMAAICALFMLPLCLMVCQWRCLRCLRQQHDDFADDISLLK
From the text: (§1) In Vitro Enzymatic BACE1 and BACE2 FRET (Fluorescence Resonance Energy Transfer) Assays (Enzyme Assay Data in Table 1)

BACE2 = BACE2 (Homo sapiens (Human), UniProt Q9Y5Z0); assay: In vitro enzymatic BACE2 FRET assay; format: biochemical; conditions: read-out: IC50 IP (μM) BACE2 Enzyme
From the text: as §1

BACE1 [2] = molecular target: T1, BACE1; assay: BACE1 cell assay; format: cell-based
Target sequence in this assay (P56817 46-501, species assumed): as the sequence (P56817 46-501) above

[3] = read-out: IC50 IP (μM) BACE1 Cell

Chain of Cathepsin D (CatD) (P07339 65-412, species assumed): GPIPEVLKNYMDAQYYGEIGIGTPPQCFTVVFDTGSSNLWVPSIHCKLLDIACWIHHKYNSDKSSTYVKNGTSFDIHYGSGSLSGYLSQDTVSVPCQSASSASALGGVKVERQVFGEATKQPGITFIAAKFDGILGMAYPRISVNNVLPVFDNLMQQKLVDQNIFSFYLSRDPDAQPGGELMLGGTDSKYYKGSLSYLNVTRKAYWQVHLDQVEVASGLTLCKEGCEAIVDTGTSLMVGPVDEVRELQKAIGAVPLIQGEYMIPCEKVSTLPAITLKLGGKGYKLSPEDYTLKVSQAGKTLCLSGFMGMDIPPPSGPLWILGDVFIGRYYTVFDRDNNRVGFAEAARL
Chain of BACE2 (Q9Y5Z0 63-518): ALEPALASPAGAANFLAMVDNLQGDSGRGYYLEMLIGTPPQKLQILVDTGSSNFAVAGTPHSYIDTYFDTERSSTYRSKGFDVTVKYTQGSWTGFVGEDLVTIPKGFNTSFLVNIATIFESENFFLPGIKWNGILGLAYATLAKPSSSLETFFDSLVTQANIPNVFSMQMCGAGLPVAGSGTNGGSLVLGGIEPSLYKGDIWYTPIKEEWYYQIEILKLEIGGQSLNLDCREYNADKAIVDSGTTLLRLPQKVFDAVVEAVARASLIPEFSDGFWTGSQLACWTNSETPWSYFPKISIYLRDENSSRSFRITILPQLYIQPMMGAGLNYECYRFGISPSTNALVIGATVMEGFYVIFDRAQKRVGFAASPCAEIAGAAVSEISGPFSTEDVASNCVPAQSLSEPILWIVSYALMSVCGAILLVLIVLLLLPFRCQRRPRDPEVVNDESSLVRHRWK

`C#C[C@H](C)Oc1cnc(/C(F)=C/c2ccc(F)c([C@@]3(C)N=C(N)S[C@@]4(COC)C[C@H]43)c2)cn1` [Example 264] showed an IC50 (Cathepsin D (CatD)) of 363 µM, an IC50 (BACE1 [1]) of 0.003 µM and an IC50 (BACE2) of 0.917 µM. For the same molecule, the IC50 (BACE1 [2]; [3]) was 0.026 µM.
In the case of `COC[C@]12C[C@H]1[C@@](C)(c1cc(/C=C(\F)c3cnc(OCC(F)F)cn3)ccc1F)N=C(N)S2` [Example 266], the IC50 (Cathepsin D (CatD)) is reported as 409 µM, the IC50 (BACE1 [1]) is reported as 0.591 µM and the IC50 (BACE2) is reported as 1.58 µM. For the same molecule, the IC50 (BACE1 [2]; [3]) was 1.51 µM.
Work on `COC[C@]12C[C@H]1[C@@](C)(c1cc(/C=C(\F)c3cnc(OCC(F)(F)F)cn3)ccc1F)N=C(N)S2` [Example 267] yielded an IC50 (Cathepsin D (CatD)) of 209 µM, an IC50 (BACE1 [1]) of 0.112 µM and an IC50 (BACE2) of 1.73 µM. The IC50 (BACE1 [2]; [3]) was 0.559 µM.
`COC[C@]12C[C@H]1[C@@](C)(c1cc(/C=C(\F)c3cnc(OCCF)cn3)ccc1F)N=C(N)S2` [Example 269] was tested, and the IC50 (Cathepsin D (CatD)) was 329 µM, the IC50 (BACE1 [1]) was 0.839 µM and the IC50 (BACE2) was 1.14 µM. It also gave an IC50 (BACE1 [2]; [3]) of 1.66 µM.
Work on `COC[C@]12C[C@H]1[C@@](C)(c1cc(/C=C(\F)c3cnc(OCC4CC4)cn3)ccc1F)N=C(N)S2` [Example 270] yielded an IC50 (Cathepsin D (CatD)) of 211 µM, an IC50 (BACE1 [1]) of 0.659 µM and an IC50 (BACE2) of 1.22 µM. For the same molecule, the IC50 (BACE1 [2]; [3]) was 5.12 µM.
Work on `COC[C@]12C[C@H]1[C@@](C)(c1cc(/C=C(\F)c3cnc(OCC4COC4)cn3)ccc1F)N=C(N)S2` [Example 272] yielded an IC50 (Cathepsin D (CatD)) of 864 µM, an IC50 (BACE1 [1]) of 3.04 µM and an IC50 (BACE2) of 4.02 µM. The IC50 (BACE1 [2]; [3]) was 2.53 µM.
`COC[C@]12C[C@H]1[C@@](C)(c1cc(/C=C(\F)c3cnc(OCC(C)C)cn3)ccc1F)N=C(N)S2` [Example 274] was tested, and the IC50 (Cathepsin D (CatD)) was 181 µM, the IC50 (BACE1 [1]) was 1.9 µM and the IC50 (BACE2) was 2.19 µM. The IC50 (BACE1 [2]; [3]) was 4.26 µM.
In the case of `COC[C@]12C[C@H]1[C@@](C)(c1cc(/C=C(\F)c3cnc(OCc4cc(C)on4)cn3)ccc1F)N=C(N)S2` [Example 275], the IC50 (Cathepsin D (CatD)) is reported as 144 µM, the IC50 (BACE1 [1]) is reported as 0.248 µM and the IC50 (BACE2) is reported as 1.2 µM. It also gave an IC50 (BACE1 [2]; [3]) of 2 µM.
Work on `C#CCOc1cnc(/C(F)=C/c2ccc(F)c([C@@]3(C)N=C(N)S[C@@]4(C(=O)N5[C@H]6COC[C@@H]5COC6)C[C@H]43)c2)cn1` [Example 279, ((1S,5S,6S)-3-amino-5-(2-fluoro-5-((Z)-2-fluoro-2-(5-(prop-2-yn-1-yloxy)pyrazin-2-yl)vinyl)phenyl)-5-methyl-2-thia-4-azabicyclo[4.1.0]hept-3-en-1-yl)((1R,5R)-3,7-dioxa-9-azabicyclo[3.3.1]nonan-9-yl)methanone] yielded an IC50 (Cathepsin D (CatD)) of 42 µM, an IC50 (BACE1 [1]) of 0.0012 µM and an IC50 (BACE2) of 0.176 µM. It also gave an IC50 (BACE1 [2]; [3]) of 0.001 µM.
`C#CCOc1cnc(/C(F)=C/c2cnc(F)c([C@@]3(C)N=C(N)S[C@@]4(C(=O)N5CC[C@H](F)C5)C[C@H]43)c2)cn1` [Example 280, ((1S,5S,6S)-3-amino-5-(2-fluoro-5-((Z)-2-fluoro-2-(5-(prop-2-yn-1-yloxy)pyrazin-2-yl)vinyl)pyridin-3-yl)-5-methyl-2-thia-4-azabicyclo[4.1.0]hept-3-en-1-yl)((S)-3-fluoropyrrolidin-1-yl)methanone] gave an IC50 (Cathepsin D (CatD)) of 115 µM, an IC50 (BACE1 [1]) of 0.0013 µM and an IC50 (BACE2) of 0.119 µM. The IC50 (BACE1 [2]; [3]) was 0.0016 µM.
`C[C@]1(c2cc(/C=C(\F)c3ccc(C#N)cn3)cnc2F)N=C(N)S[C@@]2(C(=O)NCC(F)F)C[C@H]21` [Example 281, (1S,5S,6S)-3-amino-5-(5-((Z)-2-(5-cyanopyridin-2-yl)-2-fluorovinyl)-2-fluoropyridin-3-yl)-N-(2,2-difluoroethyl)-5-methyl-2-thia-4-azabicyclo[4.1.0]hept-3-ene-1-carboxamide] showed an IC50 (Cathepsin D (CatD)) of 269 µM, an IC50 (BACE1 [1]) of 0.0214 µM and an IC50 (BACE2) of 0.164 µM. The IC50 (BACE1 [2]) was 0.0542 µM.
`C#CCOc1cnc(/C(F)=C/c2cnc(F)c([C@@]3(C)N=C(N)S[C@@]4(C(=O)N(C)C)C[C@H]43)c2)cn1` [Example 287, (1S,5S,6S)-3-amino-5-(2-fluoro-5-((Z)-2-fluoro-2-(5-(prop-2-yn-1-yloxy)pyrazin-2-yl)vinyl)pyridin-3-yl)-N,N,5-trimethyl-2-thia-4-azabicyclo[4.1.0]hept-3-ene-1-carboxamide] showed an IC50 (Cathepsin D (CatD)) of 206 µM, an IC50 (BACE1 [1]) of 0.0019 µM and an IC50 (BACE2) of 0.04 µM. For the same molecule, the IC50 (BACE1 [2]; [3]) was 0.0022 µM.
In the case of `CC#CCOc1cnc(/C(F)=C/c2cnc(F)c([C@@]3(C)N=C(N)S[C@@]4(C(=O)N(C)C)C[C@H]43)c2)cn1` [Example 289, (1S,5S,6S)-3-amino-5-(5-((Z)-2-(5-(but-2-yn-1-yloxy)pyrazin-2-yl)-2-fluorovinyl)-2-fluoropyridin-3-yl)-N,N,5-trimethyl-2-thia-4-azabicyclo[4.1.0]hept-3-ene-1-carboxamide], the IC50 (Cathepsin D (CatD)) is reported as 227 µM, the IC50 (BACE1 [1]) is reported as 0.0008 µM and the IC50 (BACE2) is reported as 0.022 µM. The IC50 (BACE1 [2]; [3]) was 0.002 µM.
Molecule `CN(C)C(=O)[C@]12C[C@H]1[C@@](C)(c1cc(/C=C(\F)c3cnc(OCC(F)(F)C(F)F)cn3)cnc1F)N=C(N)S2` [Example 291, (1S,5S,6S)-3-amino-5-(2-fluoro-5-((Z)-2-fluoro-2-(5-(2,2,3,3-tetrafluoropropoxy)pyrazin-2-yl)vinyl)pyridin-3-yl)-N,N,5-trimethyl-2-thia-4-azabicyclo[4.1.0]hept-3-ene-1-carboxamide] has an IC50 (Cathepsin D (CatD)) of 290 µM, an IC50 (BACE1 [1]) of 0.0406 µM and an IC50 (BACE2) of 0.106 µM. It also gave an IC50 (BACE1 [2]) of 0.326 µM.
For `C#CCOc1cnc(/C(F)=C/c2cnc(F)c([C@@]3(C)N=C(N)S[C@@]4(C(=O)OC)C[C@H]43)c2)cn1` [Example 294, (1S,5S,6S)-methyl 3-amino-5-(2-fluoro-5-((Z)-2-fluoro-2-(5-(prop-2-yn-1-yloxy)pyrazin-2-yl)vinyl)pyridin-3-yl)-5-methyl-2-thia-4-azabicyclo[4.1.0]hept-3-ene-1-carboxylate methanone], the IC50 (Cathepsin D (CatD)) was 400 µM, the IC50 (BACE1 [1]) was 0.0089 µM and the IC50 (BACE2) was 2.76 µM. It also gave an IC50 (BACE1 [2]; [3]) of 0.0949 µM.
In the case of `C#CCOc1cnc(/C(F)=C/c2cnc(F)c([C@@]3(C)N=C(N)S[C@@]4(C(=O)N5CC[C@@H](F)C5)C[C@H]43)c2)cn1` [Example 295, ((1S,5S,6S)-3-amino-5-(2-fluoro-5-((Z)-2-fluoro-2-(5-(prop-2-yn-1-yloxy)pyrazin-2-yl)vinyl)pyridin-3-yl)-5-methyl-2-thia-4-azabicyclo[4.1.0]hept-3-en-1-yl)((R)-3-fluoropyrrolidin-1-yl)methanone], the IC50 (Cathepsin D (CatD)) is reported as 58.6 µM, the IC50 (BACE1 [1]) is reported as 0.0008 µM and the IC50 (BACE2) is reported as 0.078 µM. For the same molecule, the IC50 (BACE1 [2]; [3]) was 0.0004 µM.
`CN(C)C(=O)[C@]12C[C@H]1[C@@](C)(c1cc(/C=C(\F)c3cnc(C#N)cn3)cnc1F)N=C(N)S2` [Example 296, (1S,5S,6S)-3-amino-5-(5-((Z)-2-(5-cyanopyrazin-2-yl)-2-fluorovinyl)-2-fluoropyridin-3-yl)-N,N,5-trimethyl-2-thia-4-azabicyclo[4.1.0]hept-3-ene-1-carboxamide] gave an IC50 (Cathepsin D (CatD)) of 290 µM, an IC50 (BACE1 [1]) of 0.0119 µM and an IC50 (BACE2) of 0.037 µM. The IC50 (BACE1 [2]) was 0.0435 µM.
For `C#CCOc1cnc(/C(F)=C/c2cnc(F)c([C@@]3(C)N=C(N)S[C@@]4(C(=O)NCC(F)F)C[C@H]43)c2)cn1` [Example 300, (1S,5S,6S)-3-amino-N-(2,2-difluoroethyl)-5-(2-fluoro-5-((Z)-2-fluoro-2-(5-(prop-2-yn-1-yloxy)pyrazin-2-yl)vinyl)pyridin-3-yl)-5-methyl-2-thia-4-azabicyclo[4.1.0]hept-3-ene-1-carboxamide], the IC50 (Cathepsin D (CatD)) was 20 µM, the IC50 (BACE1 [1]) was 0.0025 µM and the IC50 (BACE2) was 0.411 µM. For the same molecule, the IC50 (BACE1 [2]) was 0.0066 µM.
With `C[C@H]1[C@@H](F)CCN1C(=O)[C@]12C[C@H]1[C@@](C)(c1cc(/C=C(\F)c3ccc(C#N)cn3)ccc1F)N=C(N)S2` [Example 306, 6-((Z)-2-(3-((1S,5S,6S)-3-amino-1-((2S,3S)-3-fluoro-2-methylpyrrolidine-1-carbonyl)-5-methyl-2-thia-4-azabicyclo[4.1.0]hept-3-en-5-yl)-4-fluorophenyl)-1-fluorovinyl)nicotinonitrile] the IC50 (Cathepsin D (CatD)) was 16.2 µM, the IC50 (BACE1 [1]) was 0.002 µM and the IC50 (BACE2) was 0.111 µM. It also gave an IC50 (BACE1 [2]; [3]) of 0.001 µM.
Work on `C[C@]1(c2cc(/C=C(\F)c3ccc(C#N)cn3)ccc2F)N=C(N)S[C@@]2(C(=O)N3CCOC4(COC4)C3)C[C@H]21` [Example 308, 6-((Z)-2-(3-((1S,5S,6S)-3-amino-5-methyl-1-(2,5-dioxa-8-azaspiro[3.5]nonane-8-carbonyl)-2-thia-4-azabicyclo[4.1.0]hept-3-en-5-yl)-4-fluorophenyl)-1-fluorovinyl)nicotinonitrile] yielded an IC50 (Cathepsin D (CatD)) of 296 µM, an IC50 (BACE1 [1]) of 0.0021 µM and an IC50 (BACE2) of 0.013 µM. For the same molecule, the IC50 (BACE1 [2]; [3]) was 0.001 µM.
`C[C@@H]1COC[C@H](C)N1C(=O)[C@]12C[C@H]1[C@@](C)(c1cc(/C=C(\F)c3ccc(C#N)cn3)ccc1F)N=C(N)S2` [Example 313, 6-((Z)-2-(3-((1S,5S,6S)-3-amino-1-((3S,5R)-3,5-dimethylmorpholine-4-carbonyl)-5-methyl-2-thia-4-azabicyclo[4.1.0]hept-3-en-5-yl)-4-fluorophenyl)-1-fluorovinyl)nicotinonitrile] showed an IC50 (Cathepsin D (CatD)) of 257 µM, an IC50 (BACE1 [1]) of 0.0019 µM and an IC50 (BACE2) of 0.147 µM. For the same molecule, the IC50 (BACE1 [2]; [3]) was 0.0022 µM.
Molecule `C[C@@H]1COC[C@@H](C)N1C(=O)[C@]12C[C@H]1[C@@](C)(c1cc(/C=C(\F)c3ccc(C#N)cn3)ccc1F)N=C(N)S2` [Example 314, 6-((Z)-2-(3-((1S,5S,6S)-3-amino-1-((3R,5R)-3,5-dimethylmorpholine-4-carbonyl)-5-methyl-2-thia-4-azabicyclo[4.1.0]hept-3-en-5-yl)-4-fluorophenyl)-1-fluorovinyl)nicotinonitrile] has an IC50 (Cathepsin D (CatD)) of 447 µM, an IC50 (BACE1 [1]) of 0.0047 µM and an IC50 (BACE2) of 0.24 µM. For the same molecule, the IC50 (BACE1 [2]; [3]) was 0.0067 µM.
For `C[C@]1(c2cc(/C=C(\F)c3ccc(C#N)cn3)ccc2F)N=C(N)S[C@@]2(C(=O)N3C4CCC3COC4)C[C@H]21` [Example 315, 6-((Z)-2-(3-((1S,5S,6S)-3-amino-1-(3-oxa-8-azabicyclo[3.2.1]octane-8-carbonyl)-5-methyl-2-thia-4-azabicyclo[4.1.0]hept-3-en-5-yl)-4-fluorophenyl)-1-fluorovinyl)nicotinonitrile], the IC50 (Cathepsin D (CatD)) was 390 µM, the IC50 (BACE1 [1]) was 0.0016 µM and the IC50 (BACE2) was 0.071 µM. The IC50 (BACE1 [2]) was 0.0013 µM.
